For data set [1] the following is noted: in words; cited from earlier work.
Data set [2] deals with phencyclidine binding sites in the central nervous system. The conditions noted are these: in words; cited from earlier work.
The conditions of data set [3]: compared to 17% who received a placebo; cited from earlier work.
For data set [4] the following is noted: in words; cited from earlier work. The source holds these as a separate data set.
Data set [5] is described as follows: protection against maximal electroshock induced seizures (corneal electroshock, tonic-extensor component). The format is in vivo, male CF-1 type mice. The conditions noted are these: Mus musculus, ip, 0.25 h; mice, intraperitoneal, saline carrier, 15 min before electroshock (30 mA, 50 Hz, 0.1 s). The method, then: (§1) Compound 1 was administered intraperotoneally to male CF-1 type mice (20-25 g) with a saline solution carrier. The dose effect behavior was determined by the administration of six different doses of each compound, treating eight mice at each dose. After a period of fifteen minutes, the mice were subjected to corneal application of electroshock (30 mA at 50 Hz for 0.1 s). The ED50 and the 95% confidence intervals of drug which eliminated the tonic-extensor component of the convulsion in 50% of the animals was calculated by the method of Litchfield and Wilcoxon (J. Pharmacol. Exp. Ther. 1949, 96, 99). Drug induced motor toxicity was examined using the inverted screen test which measures the ability of mice to hold onto a screen which has been turned vertical. Control animals will be able to hold on.

Data set [6] is described as follows: drug induced motor toxicity, inverted screen test. Conditions: mouse, in vivo, ip, mice. As for the experimental part: as §1

`CC12NC(Cc3ccccc31)c1ccccc12` (single isomer, unassigned) [MK-801]: in data set [1], the sedative side effects result is “essentially free of the usual sedative side effects”. Moreover, in data set [2], the “affinity for phencyclidine binding sites” value was “high affinity”.

For the compound `NC(=O)N1c2ccccc2C=Cc2ccccc21` [Carbamazepine, 5-carbamyl-5H-dibenzo[b,f]azepine], the “addicts taking the medication able to abstain from cocaine for a prescribed period” value in data set [3] is 59%. Further, in data set [4], the “acute and motor toxicity” value was “low acute and motor toxicity”; the anticonvulsant activity result is on record as “good activity”; the bioavailability result is on record as “low bioavailability”; the bone marrow suppression entry is reported as “implicated in bone marrow suppression”. In addition, the toxic overdose reported entry in data set [4] is reported as “only one case of toxic overdose has been reported”.

For `NC(=O)C12NC(Cc3ccccc31)c1ccccc12` (centres unmarked) [Compound 1, 5-Aminocarbonyl-10,11-dihydro-5H-dibenzo[a,d]cyclohepten-5,10-imine], the 50% effective dose (ED50) in data set [5] is 8.9 mg/kg. Further, the TD50 in data set [6] (intraperitoneal, inverted screen test) lay in the range of 50 to 55 mg/kg. The selectivity ratio in data set [6] (motor toxicity TD50 versus maximal electroshock ED50, read-out: therapeutic index (TI)) fell in the range of 5.6 to 6.2.

(Values after patent publication US5196415A, “5-aminocarbonyl-5H-dibenzo[a.d]cyclohepten-5,10-imines for treatment of epilepsy and cocaine addiction” (The United States of America as represented by the …, priority 1992, dated 1993).)
